In patent US11351185B2, “Use of isovalerylspiramycins as anti-cancer agents to inhibit metastasis” (priority 2020, dated 2022):
“Also recorded” adds a separate entry of the source.

What was measured:
[1] = system: γH2AX; assay: γH2AX immunofluorescence staining and western blot (DNA damage); format: cell-based; conditions: 6 hours
Method: It is well-established that increased levels of ROS in cells leads to oxidative DNA damage, inducing genomic instability and inhibiting cell cycle progression. Cooke et al., FASEB J. 17: 1195 (2003). Since ISP I downregulates SELH, a key regulator of ROS response elements, the inventors first assessed whether treatment with ISP I augmented DNA damage in vitro.
Western blotting was performed to detect the protein expression level of SELH, NRF2 and γH2AX regulated by ISP I. The cells were lysed by RIPA buffer from ThermoFisher Scientific, and the concentration was measured using DC Protein Assay, a Bio-Rad product. Equal amounts of protein of each sample were loaded for gel electrophoresis and were transferred to nitrocellulose membrane, blocked and incubated overnight at 4° C. with primary antibodies. Then the membranes were washed with TBST (3 times, 10 min each). Exposure, imaging, and data analysis were done using a KwikQuant Imager system, a product of Kindle Biosciences (Greenwich, Conn. USA). The following antibodies were used: anti-phospho-histone H2A.X (Ser139), anti-NRF2 (Cell Signaling, Danvers, Mass. USA), anti-SELH (Abcam, Cambridge, Mass. USA), anti-GAPDH (Millipore, Temecula, Calif. USA).
For immunofluorescence assay, cells were seeded on a 35-mm confocal dish with glass bottom and were treated with ISP I. […] Then the cells were incubated with secondary antibody conjugated with Alexa Fluor-594 (Invitrogen), followed by staining with DAPI for nuclei. Images were obtained using Zeiss LSM 780 microscopy (Carl Zeiss, Oberkochen Germany).

[2] = system: 786-O and RCC4 cells; assay: Annexin V apoptosis flow cytometry, RCC cells; format: cell-based
Method: (§1) To confirm the cytotoxic effect observed in the glioblastoma cell lines, the inventors assessed ISP I's effect on renal cell carcinoma (RCC) cell lines (ACHN, UM-RC-2, RCC4 and 786-0). Cell viability was assessed similarly via CKK8 analysis. […] (FIG. 4C, D).
Cells (2×10^5) were plated in 6-well plates and treated with different concentrations of ISP I. Then the cells were harvested and washed three times with PBS. Cells were resuspended in 100 μl binding buffer and were incubated with 5 μl APC-conjugated Annexin V working solution, a product of BD bioscience (Franklin Lakes, N.J. USA), and 1 μl propidium iodide (PI), a product of Invitrogen, for 15 min at room temperature with protection from light. Data acquisition and quantification were processed with BD LSRFortessa flow cytometer, using FlowJo software (Ashland, Oreg. USA).

[3] = system: meningioma cell lines IOMM, JEN, CH-157; assay: CCK8 cell viability assay, meningioma cell lines; format: cell-based; conditions: 48 hours
Method: Cell viability was measured by Cell Counting Kit-8 (CCK-8, Dojindo Molecular Technologies, Tokyo, Japan). Cells were seeded in 96-well plates at a density of 3×10^3 cells/well and cultured for 24 hours before treatment with ISP I at different concentration. After treatment for a gradient ISP I concentration from 0 to 20 μg/ml for 48 hours, while control groups were only treated in PBS solution, 10 μl of CCK-8 solution were added to each well and cells were incubated for an additional 2 hours. The absorbance in each well at a wavelength of OD450 was detected by the Synergy H1 microplate reader, a product of BioTek (Winooski, Vt. USA).

[4] = system: LN229 and U251 cells; assay: Cell-cycle analysis by flow cytometry (EdU and DAPI), glioblastoma cells; format: cell-based
Method: To assess the cytotoxicity of ISPs I, II and III, five glioblastoma cell lines, T98G, U118, A172, LN229 and U251, were treated with serial doses of each ISP, respectively, for 48 hours. Cell viability of these cell lines were evaluated by CCK8 assay, and the 50% inhibitory concentration (IC50) was calculated (FIG. 2A, B and FIG. 3). […] Cell distribution in each phase of the cell cycle was assessed in LN229 and U251 cells by flow cytometry, followed by EdU and DAPI staining.
(§2) For monitoring cell-cycle arrest of ISP I-treated cells, Click-iT EdU Flow Cytometry Assay Kits were used, a product of ThermoFisher Scientific. Cells were co-cultured with EdU at a concentration of 10 μM for 1 hour. After fixation and permeabilization, EdU-positive cells were labeled with Alexa Fluor 647 fluorescein. DAPI also was used for measuring total DNA content to identify differences in cell cycle phases. Data were collected by means of a BD LSRFortessa flow cytometer using FlowJo software. Cells that are positive with EdU and DAPI were in S-Phase of the cell cycle.

[5] = system: murine B16 cells (lung metastasis); assay: B16 melanoma lung metastasis mouse model; format: in vivo, C57BL/6 mice; conditions: 35 mg/kg i.p. every day, 12 days; vs saline
Method: In addition to the aforementioned xenograft tumor models, the anti-tumor activity of ISP I was assessed in a metastatic murine melanoma (B16) model.
For metastasis study, C57BL/6 mice (4-5 weeks) from Charles River Laboratories (Wilmington, Mass. USA) were assigned randomly to one or another of two groups, 9 animals per group. B16-F10 mouse skin melanoma cells (2×10^5) were resuspended in 100 μl saline and injected through tail vein. After treatment with ISP I at 35 mg/kg for 12 days, all mice were euthanized, and the lungs were examined for counting black metastasis dots.

[6] = system: 786-O and RCC4 cells; assay: Cell-cycle analysis by flow cytometry, RCC cells; format: cell-based
Method: as §1, §2

[7] = system: LN229-luc tumors; assay: Intracranial LN229-luc glioblastoma xenograft mouse model; format: in vivo, NSG mice
Description: The inventors first assessed ISP I's anti-tumor activity in an intracranial mouse model (FIG. 11A). NSG mice were inoculated with 1×10^5 LN229-luc cells in the right-frontal cortex. After 7 days, intracranial tumor growth was confirmed via noninvasive in vivo bioluminescence imaging and mice were randomized into ISP I or DMSO (control) treatment groups.
Mice experiments were approved by the National Institute of Neurological Disorders and Stroke (NINDS) and National Cancer Institute (NCI) Animal Use and Care Committees. For intracranial xenografts establishment, NOD-Prkdc^scidII2rg^tmiWjl (NSG) mice (6-8 weeks old from the NCI-Frederick animal facility) were inoculated intracranially with 100,000 LN229-luc cells suspended in 2 μL Hank's Balanced Salt Solution (HBSS), a product of Crystalgen (Commack, N.Y. USA). After one week, luciferin signals were detected to confirm the survival of tumor cells in mice. The mice were assigned to the indicated groups according to the signal intensity, in order to keep the baseline balanced. ISP I was injected intraperitoneally daily at a dose of 66 mg/kg body weight for 24 days. The mice in control group were injected with the same volume of corn oil or saline. The viability of tumors was monitored every four days. […]

Compound: COC1C(O)CC(=O)OC(C)CC=CC=CC(OC2CCC(N(C)C)C(C)O2)C(C)CC(CC=O)C1OC1OC(C)C(OC2CC(C)(O)C(OC(=O)CC(C)C)C(C)O2)C(N(C)C)C1O (stereo not shown) [ISP I, 4″-isolvalerylspiramycin I]
- γH2AX expression (DNA damage marker) ([1]; 786-O and RCC4): increase of γH2AX expression
- γH2AX expression (DNA damage marker) ([1]; LN229 and U251): higher quantities of γH2A.X
- γH2AX expression (DNA damage marker) ([1]; LN229 and U251, listed as ISP 1): increase of γH2AX expression
- apoptosis (Annexin V stain) [2]: induced a dose-dependent apoptosis
- cytotoxic effect on meningioma cell lines [3]: demonstrated a cytotoxic effect
- cell distribution in cell-cycle phases [4]: G0/G1 arrest; also recorded: dose-dependent increase in the G0/G1 phase and a decrease in the S phase
- lung tumor nodules (melanoma spots) [5]: significantly reduced lung tumor nodules
- cell distribution in cell-cycle phases [6]: clear G0/G1 arrest; also recorded: induced cell-cycle arrest in the G0/G1 phase
- tumor growth / burden (bioluminescence imaging) ([7]; 66 mg/kg body weight i.p. every day): reduced LN229-luc tumor burden compared with the untreated group; also recorded: significantly reduced tumor growth
- response in tumor-derived bioluminescence images ([7]; three mice, day 24, 66 mg/kg i.p. daily): complete response
